Source: patent US12157741B2, “Macrocyclic inhibitors of DYRK1A” (DANA-FARBER CANCER INSTITUTE, INC., priority 2018, dated 2024)
Read-outs that look alike come from different tables or passages of the source.

What was measured:
Format in all cases: binding
various enzymes [1] = molecular target: various enzymes (Homo sapiens, UniProt P49759); conditions: compound 1 uM
Protocol: (§1) Ambit profiling was conducted in accordance with the manufacturer's instructions.

various enzymes [2] = molecular target: various enzymes (Homo sapiens, UniProt Q9Y6E0); conditions: compound 1 uM
Protocol: as §1

various enzymes [3] = molecular target: various enzymes (Homo sapiens, UniProt P25098); conditions: compound 1 uM
Protocol: as §1

various enzymes [4] = molecular target: various enzymes (Homo sapiens, UniProt Q9H422); conditions: compound 1 uM
Protocol: as §1

various enzymes [5] = molecular target: various enzymes (Homo sapiens, UniProt Q15208); conditions: compound 1 uM
Protocol: as §1

various enzymes [6] = molecular target: various enzymes (Homo sapiens, UniProt Q8WTQ7); conditions: compound 1 uM
Protocol: as §1

various enzymes [7] = molecular target: various enzymes (Homo sapiens, UniProt P78368); conditions: compound 1 uM
Protocol: as §1

various enzymes [8] = molecular target: various enzymes (Homo sapiens, UniProt O75460); conditions: compound 1 uM
Protocol: as §1

various enzymes [9] = molecular target: various enzymes (Homo sapiens, UniProt O14730); conditions: compound 1 uM
Protocol: as §1

various enzymes [10] = molecular target: various enzymes (Homo sapiens, UniProt P11802); conditions: compound 1 uM
Protocol: as §1

various enzymes [11] = molecular target: various enzymes (Homo sapiens, UniProt P04049); conditions: compound 1 uM
Protocol: as §1

various enzymes [12] = molecular target: various enzymes (Homo sapiens, UniProt Q05397); conditions: compound 1 uM
Protocol: as §1

various enzymes [13] = molecular target: various enzymes (Homo sapiens, UniProt Q9NYL2); conditions: compound 1 uM
Protocol: as §1

various enzymes [14] = molecular target: various enzymes (Homo sapiens, UniProt P27448); conditions: compound 1 uM
Protocol: as §1

various enzymes [15] = molecular target: various enzymes (Homo sapiens, UniProt Q9NY57); conditions: compound 1 uM
Protocol: as §1

various enzymes [16] = molecular target: various enzymes (Homo sapiens, UniProt P10721); conditions: compound 1 uM
Protocol: as §1

various enzymes [17] = molecular target: various enzymes (Homo sapiens, UniProt P52564); conditions: compound 1 uM
Protocol: as §1

various enzymes [18] = molecular target: various enzymes (Homo sapiens, UniProt Q15139); conditions: compound 1 uM
Protocol: as §1

various enzymes [19] = molecular target: various enzymes (Homo sapiens, UniProt P00533, L858R)
Protocol: as §1

various enzymes [20] = molecular target: various enzymes (Homo sapiens, UniProt Q86Y07); conditions: compound 1 uM
Protocol: as §1

various enzymes [21] = molecular target: various enzymes (Homo sapiens, UniProt P42679); conditions: compound 1 uM
Protocol: as §1

various enzymes [22] = molecular target: various enzymes (Homo sapiens, UniProt Q12866); conditions: compound 1 uM
Protocol: as §1

various enzymes [23] = molecular target: various enzymes (Mycobacterium tuberculosis, UniProt P9WI81); conditions: compound 1 uM
Protocol: as §1

various enzymes [24] = molecular target: various enzymes (Homo sapiens, UniProt Q09013); conditions: compound 1 uM
Protocol: as §1

various enzymes [25] = molecular target: various enzymes (Homo sapiens, UniProt Q13188); conditions: compound 1 uM
Protocol: as §1

various enzymes [26] = molecular target: various enzymes (Homo sapiens, UniProt Q9UBF8); conditions: compound 1 uM
Protocol: as §1

various enzymes [27] = molecular target: various enzymes (Homo sapiens, UniProt O94768); conditions: compound 1 uM
Protocol: as §1

various enzymes [28] = molecular target: various enzymes (Homo sapiens, UniProt P07949, V804M)
Protocol: as §1

various enzymes [29] = molecular target: various enzymes (Homo sapiens, UniProt Q00536); conditions: compound 1 uM
Protocol: as §1

various enzymes [30] = molecular target: various enzymes (Homo sapiens, UniProt Q6P3R8); conditions: compound 1 uM
Protocol: as §1

various enzymes [31] = molecular target: various enzymes (Homo sapiens, UniProt P00519, F317I); conditions: compound 1 uM
Protocol: as §1

various enzymes [32] = molecular target: various enzymes (Homo sapiens, UniProt Q9UKI8); conditions: compound 1 uM
Protocol: as §1

various enzymes [33] = molecular target: various enzymes (Homo sapiens, UniProt P07947); conditions: compound 1 uM
Protocol: as §1

various enzymes [34] = molecular target: various enzymes (Homo sapiens, UniProt P10721, T670I/V559D)
Protocol: as §1

various enzymes [35] = molecular target: various enzymes (Homo sapiens, UniProt Q07002); conditions: compound 1 uM
Protocol: as §1

various enzymes [36] = molecular target: various enzymes (Homo sapiens, UniProt Q9P1W9); conditions: compound 1 uM
Protocol: as §1

various enzymes [37] = molecular target: various enzymes (Homo sapiens, UniProt Q16288); conditions: compound 1 uM
Protocol: as §1

various enzymes [38] = molecular target: various enzymes (Homo sapiens, UniProt Q9UF33); conditions: compound 1 uM
Protocol: as §1

various enzymes [39] = molecular target: various enzymes (Homo sapiens, UniProt P00533, G719C)
Protocol: as §1

various enzymes [40] = molecular target: various enzymes (Homo sapiens, UniProt P53667); conditions: compound 1 uM
Protocol: as §1

various enzymes [41] = molecular target: various enzymes (Homo sapiens, UniProt P36888, K663Q)
Protocol: as §1

various enzymes [42] = molecular target: various enzymes (Homo sapiens, UniProt O15111); conditions: compound 1 uM
Protocol: as §1

various enzymes [43] = molecular target: various enzymes (Homo sapiens, UniProt Q9UK32); conditions: compound 1 uM
Protocol: as §1

Chain of various enzymes (Homo sapiens, UniProt P10721) (P10721 26-976): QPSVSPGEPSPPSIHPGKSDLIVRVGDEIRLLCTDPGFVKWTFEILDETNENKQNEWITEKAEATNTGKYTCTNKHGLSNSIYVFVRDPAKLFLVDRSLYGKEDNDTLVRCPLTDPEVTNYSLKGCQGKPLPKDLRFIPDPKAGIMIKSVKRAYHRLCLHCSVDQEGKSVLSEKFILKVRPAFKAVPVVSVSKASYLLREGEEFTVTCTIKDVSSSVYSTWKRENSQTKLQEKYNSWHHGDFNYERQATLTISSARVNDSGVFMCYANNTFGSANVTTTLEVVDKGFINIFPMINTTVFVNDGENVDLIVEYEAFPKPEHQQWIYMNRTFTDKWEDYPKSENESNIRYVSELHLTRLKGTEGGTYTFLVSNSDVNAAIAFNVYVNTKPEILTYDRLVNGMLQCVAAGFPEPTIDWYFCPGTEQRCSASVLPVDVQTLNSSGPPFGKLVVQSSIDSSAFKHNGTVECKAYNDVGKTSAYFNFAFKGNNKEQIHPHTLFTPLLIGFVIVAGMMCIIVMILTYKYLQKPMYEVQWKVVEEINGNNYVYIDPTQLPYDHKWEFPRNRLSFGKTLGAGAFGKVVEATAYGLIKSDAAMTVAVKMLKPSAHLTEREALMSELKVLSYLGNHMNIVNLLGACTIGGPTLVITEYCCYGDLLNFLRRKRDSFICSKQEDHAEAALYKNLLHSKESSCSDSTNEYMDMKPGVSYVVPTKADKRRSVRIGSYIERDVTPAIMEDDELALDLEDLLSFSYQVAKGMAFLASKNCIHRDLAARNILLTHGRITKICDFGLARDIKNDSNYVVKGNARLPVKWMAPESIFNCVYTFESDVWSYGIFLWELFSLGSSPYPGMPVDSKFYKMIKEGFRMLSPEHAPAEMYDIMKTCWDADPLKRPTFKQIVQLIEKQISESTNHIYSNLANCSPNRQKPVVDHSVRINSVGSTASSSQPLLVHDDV
Chain of various enzymes (Homo sapiens, UniProt Q9UK32) (Q9UK32 whole entry): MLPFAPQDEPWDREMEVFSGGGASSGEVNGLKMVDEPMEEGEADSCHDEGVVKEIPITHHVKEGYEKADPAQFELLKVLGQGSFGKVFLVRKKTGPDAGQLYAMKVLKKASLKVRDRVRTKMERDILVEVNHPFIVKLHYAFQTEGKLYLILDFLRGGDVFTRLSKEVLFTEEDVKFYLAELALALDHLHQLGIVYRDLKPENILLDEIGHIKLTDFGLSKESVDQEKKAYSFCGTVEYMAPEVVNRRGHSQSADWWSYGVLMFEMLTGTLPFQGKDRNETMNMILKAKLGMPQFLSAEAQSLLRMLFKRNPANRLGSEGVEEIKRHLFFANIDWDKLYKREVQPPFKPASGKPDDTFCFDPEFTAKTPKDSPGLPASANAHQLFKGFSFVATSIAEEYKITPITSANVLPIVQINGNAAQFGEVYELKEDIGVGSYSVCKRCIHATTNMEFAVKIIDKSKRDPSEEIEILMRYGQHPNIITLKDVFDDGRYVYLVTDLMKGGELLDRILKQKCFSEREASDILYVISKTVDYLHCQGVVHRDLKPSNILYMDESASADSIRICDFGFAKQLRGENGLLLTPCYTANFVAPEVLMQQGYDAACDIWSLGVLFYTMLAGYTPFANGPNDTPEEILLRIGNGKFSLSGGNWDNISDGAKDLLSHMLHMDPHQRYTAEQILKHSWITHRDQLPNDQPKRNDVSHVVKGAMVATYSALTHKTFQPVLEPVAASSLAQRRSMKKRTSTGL
Chain of various enzymes (Homo sapiens, UniProt P11802) (P11802 whole entry): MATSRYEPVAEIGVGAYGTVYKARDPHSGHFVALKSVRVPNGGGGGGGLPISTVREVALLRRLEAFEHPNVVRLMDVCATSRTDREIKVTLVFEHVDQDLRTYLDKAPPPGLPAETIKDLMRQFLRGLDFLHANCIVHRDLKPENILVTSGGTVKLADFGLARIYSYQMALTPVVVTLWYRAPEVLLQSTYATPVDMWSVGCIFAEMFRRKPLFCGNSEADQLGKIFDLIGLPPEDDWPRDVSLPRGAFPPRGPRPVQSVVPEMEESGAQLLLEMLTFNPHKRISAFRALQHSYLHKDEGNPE
Chain of various enzymes (Homo sapiens, UniProt P00519, F317I) (P00519 whole entry F317I): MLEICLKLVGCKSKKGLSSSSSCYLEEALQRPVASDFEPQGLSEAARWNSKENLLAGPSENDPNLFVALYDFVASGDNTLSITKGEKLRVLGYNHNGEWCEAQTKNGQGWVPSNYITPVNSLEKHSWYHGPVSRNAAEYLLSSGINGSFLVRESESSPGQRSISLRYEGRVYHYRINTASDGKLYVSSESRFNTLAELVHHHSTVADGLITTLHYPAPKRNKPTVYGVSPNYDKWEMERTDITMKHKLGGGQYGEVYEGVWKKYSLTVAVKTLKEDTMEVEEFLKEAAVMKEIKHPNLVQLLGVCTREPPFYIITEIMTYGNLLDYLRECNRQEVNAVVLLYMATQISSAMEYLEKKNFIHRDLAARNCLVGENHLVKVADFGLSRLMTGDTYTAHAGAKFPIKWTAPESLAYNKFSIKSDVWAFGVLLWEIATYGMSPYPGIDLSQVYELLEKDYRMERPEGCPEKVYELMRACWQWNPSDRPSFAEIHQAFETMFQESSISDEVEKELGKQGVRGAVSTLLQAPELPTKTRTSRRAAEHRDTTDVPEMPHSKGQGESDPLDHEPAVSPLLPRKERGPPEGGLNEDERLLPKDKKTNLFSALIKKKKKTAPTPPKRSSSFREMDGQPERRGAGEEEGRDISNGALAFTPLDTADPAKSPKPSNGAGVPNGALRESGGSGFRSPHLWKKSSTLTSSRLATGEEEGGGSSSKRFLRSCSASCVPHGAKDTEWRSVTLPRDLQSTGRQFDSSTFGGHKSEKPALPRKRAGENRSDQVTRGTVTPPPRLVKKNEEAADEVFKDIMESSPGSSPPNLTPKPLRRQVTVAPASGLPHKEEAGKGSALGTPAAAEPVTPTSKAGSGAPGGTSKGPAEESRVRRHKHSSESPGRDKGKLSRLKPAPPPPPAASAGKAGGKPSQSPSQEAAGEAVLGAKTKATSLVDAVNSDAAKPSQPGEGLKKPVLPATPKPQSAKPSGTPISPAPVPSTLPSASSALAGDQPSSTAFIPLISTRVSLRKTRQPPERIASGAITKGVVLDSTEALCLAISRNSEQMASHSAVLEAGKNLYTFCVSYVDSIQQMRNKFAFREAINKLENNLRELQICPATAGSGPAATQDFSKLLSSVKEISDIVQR
Chain of various enzymes (Homo sapiens, UniProt Q00536) (Q00536 whole entry): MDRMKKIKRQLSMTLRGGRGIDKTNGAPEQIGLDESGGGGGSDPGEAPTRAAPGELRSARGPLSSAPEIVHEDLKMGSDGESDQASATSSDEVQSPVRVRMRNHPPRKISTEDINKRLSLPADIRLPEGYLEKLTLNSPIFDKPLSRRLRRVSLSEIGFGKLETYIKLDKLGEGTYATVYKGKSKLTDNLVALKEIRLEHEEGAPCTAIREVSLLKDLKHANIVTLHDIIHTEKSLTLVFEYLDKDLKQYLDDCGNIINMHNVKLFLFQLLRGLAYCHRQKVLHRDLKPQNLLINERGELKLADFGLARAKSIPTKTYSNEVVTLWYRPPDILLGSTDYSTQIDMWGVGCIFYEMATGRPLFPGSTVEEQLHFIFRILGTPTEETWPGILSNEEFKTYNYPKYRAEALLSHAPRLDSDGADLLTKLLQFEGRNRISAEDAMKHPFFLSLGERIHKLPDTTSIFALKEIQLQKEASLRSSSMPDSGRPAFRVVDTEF
Chain of various enzymes (Homo sapiens, UniProt Q15139) (Q15139 whole entry): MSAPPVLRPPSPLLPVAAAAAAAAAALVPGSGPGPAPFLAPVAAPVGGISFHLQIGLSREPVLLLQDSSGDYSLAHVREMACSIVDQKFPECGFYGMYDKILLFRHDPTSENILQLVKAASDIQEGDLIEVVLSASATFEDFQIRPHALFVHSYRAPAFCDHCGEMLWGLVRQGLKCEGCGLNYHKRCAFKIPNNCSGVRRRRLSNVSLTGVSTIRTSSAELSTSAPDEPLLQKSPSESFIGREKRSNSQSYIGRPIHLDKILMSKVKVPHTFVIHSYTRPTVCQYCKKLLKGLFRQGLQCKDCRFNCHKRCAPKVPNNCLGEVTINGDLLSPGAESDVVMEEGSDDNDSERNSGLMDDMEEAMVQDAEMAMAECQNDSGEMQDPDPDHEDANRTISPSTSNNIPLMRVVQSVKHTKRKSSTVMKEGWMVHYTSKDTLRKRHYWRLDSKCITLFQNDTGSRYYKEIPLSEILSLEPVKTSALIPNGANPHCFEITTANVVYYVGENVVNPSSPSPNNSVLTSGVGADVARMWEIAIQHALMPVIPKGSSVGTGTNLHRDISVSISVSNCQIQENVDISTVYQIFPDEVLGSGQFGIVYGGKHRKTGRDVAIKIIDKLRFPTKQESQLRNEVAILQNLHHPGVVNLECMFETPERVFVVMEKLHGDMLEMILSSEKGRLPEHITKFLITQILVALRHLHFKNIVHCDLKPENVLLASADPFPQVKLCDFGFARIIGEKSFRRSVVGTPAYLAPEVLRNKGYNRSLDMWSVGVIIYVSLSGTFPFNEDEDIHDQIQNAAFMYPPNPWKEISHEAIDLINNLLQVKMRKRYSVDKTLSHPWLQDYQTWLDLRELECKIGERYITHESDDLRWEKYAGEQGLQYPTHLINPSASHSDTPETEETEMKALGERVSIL
Chain of various enzymes (Homo sapiens, UniProt P78368) (P78368 whole entry): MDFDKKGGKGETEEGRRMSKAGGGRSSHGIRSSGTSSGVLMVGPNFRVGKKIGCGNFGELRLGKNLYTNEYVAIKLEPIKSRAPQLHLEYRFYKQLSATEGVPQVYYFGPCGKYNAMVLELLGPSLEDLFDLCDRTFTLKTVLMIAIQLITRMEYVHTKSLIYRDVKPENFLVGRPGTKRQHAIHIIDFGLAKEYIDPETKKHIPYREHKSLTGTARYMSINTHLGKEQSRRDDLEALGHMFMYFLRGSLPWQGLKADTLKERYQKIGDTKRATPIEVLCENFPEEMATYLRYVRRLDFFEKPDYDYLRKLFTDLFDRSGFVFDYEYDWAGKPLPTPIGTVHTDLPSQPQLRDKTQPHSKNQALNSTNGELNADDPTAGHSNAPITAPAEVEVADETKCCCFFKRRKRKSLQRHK
Chain of various enzymes (Homo sapiens, UniProt P10721, T670I/V559D) (P10721 26-976 V559D/T670I): as the sequence (P10721 26-976) above, with V534D, T645I counted along it

CC(C)N1Cc2nn(C)cc2-c2cnc3[nH]cc(c3c2)-c2cn(nc2C(F)(F)F)CCCC1=O [Compound 45, (Z)-5-isopropyl-31-methyl-13-(trifluoromethyl)-11H,21H,31H-5-aza-2(3,5)-pyrrolo[2,3-b]pyridina-1(4,1),3(4,3)-dipyrazolacyclononaphan-6-one]
Ambit profiling: CLK1 (various enzymes [1]): 9.9 | Ambit profiling: MST3 (various enzymes [2]): 57 | Ambit profiling: GRK2 (various enzymes [3]): 100 | Ambit profiling: HIPK3 (various enzymes [4]): 15 | Ambit profiling: NDR1 (various enzymes [5]): 59 | Ambit profiling: GRK7 (various enzymes [6]): 28 | Ambit profiling: CSNK1G2 (various enzymes [7]): 100 | Ambit profiling: ERN1 (various enzymes [8]): 90 | Ambit profiling: RIOK3 (various enzymes [9]): 6 | Ambit profiling: CDK4 (various enzymes [10]): 100 | Ambit profiling: CDK4-cyclinD1 (various enzymes [10]): 53 | Ambit profiling: CDK4-cyclinD3 (various enzymes [10]): 100 | Ambit profiling: RAF1 (various enzymes [11]): 100 | Ambit profiling: FAK (various enzymes [12]): 20 | Ambit profiling: ZAK (various enzymes [13]): 45 | Ambit profiling: MARK3 (various enzymes [14]): 32 | Ambit profiling: YANK2 (various enzymes [15]): 100 | Ambit profiling: KIT (various enzymes [16]): 6.5 | Ambit profiling: KIT-autoinhibited (various enzymes [16]): 69 | Ambit profiling: MEK6 (various enzymes [17]): 15 | Ambit profiling: PRKD1 (various enzymes [18]): 36 | Ambit profiling: EGFR(L858R) (various enzymes [19]; compound 1 uM): 25 | Ambit profiling: VRK2 (various enzymes [20]): 37 | Ambit profiling: CTK (various enzymes [21]): 70 | Ambit profiling: MERTK (various enzymes [22]): 0.6 | Ambit profiling: PKNB(M. tuberculosis) (various enzymes [23]): 7 | Ambit profiling: DMPK (various enzymes [24]): 20 | Ambit profiling: MST2 (various enzymes [25]): 0 | Ambit profiling: PIK4CB (various enzymes [26]): 99 | Ambit profiling: DRAK2 (various enzymes [27]): 100 | Ambit profiling: RET(V804M) (various enzymes [28]; compound 1 uM): 8.2 | Ambit profiling: PCTK1 (various enzymes [29]): 20 | Ambit profiling: NEK5 (various enzymes [30]): 100 | Ambit profiling: ABL1(F317I)-nonphosphorylated (various enzymes [31]): 87 | Ambit profiling: ABL1(F317I)-phosphorylated (various enzymes [31]): 71 | Ambit profiling: TLK1 (various enzymes [32]): 55 | Ambit profiling: YES (various enzymes [33]): 56 | Ambit profiling: KIT(V559D, T670I) (various enzymes [34]; compound 1 uM): 8.2 | Ambit profiling: PCTK3 (various enzymes [35]): 30 | Ambit profiling: PIM2 (various enzymes [36]): 100 | Ambit profiling: TRKC (various enzymes [37]): 0.1 | Ambit profiling: EPHA6 (various enzymes [38]): 18 | Ambit profiling: EGFR(G719C) (various enzymes [39]; compound 1 uM): 59 | Ambit profiling: LIMK1 (various enzymes [40]): 93 | Ambit profiling: FLT3(K663Q) (various enzymes [41]; compound 1 uM): 2 | Ambit profiling: IKK-alpha (various enzymes [42]): 100 | Ambit profiling: RSK4(Kin.Dom.1-N-terminal) (various enzymes [43]): 2.6 | Ambit profiling: RSK4(Kin.Dom.2-C-terminal) (various enzymes [43]): 95

COc1c2c(nn1C)CN(C(C)C)C(=O)CCCn1cc(c(C(F)(F)F)n1)-c1c[nH]c3ncc-2cc13 [Compound 50, (Z)-5-isopropyl-35-methoxy-31-methyl-13-(trifluoromethyl)-11H,21H,31H-5-aza-2(3,5)-pyrrolo[2,3-b]pyridina-1(4,1),3(4,3)-dipyrazolacyclononaphan-6-one]
Ambit profiling: CLK1 (various enzymes [1]): 18 | Ambit profiling: MST3 (various enzymes [2]): 63 | Ambit profiling: GRK2 (various enzymes [3]): 87 | Ambit profiling: HIPK3 (various enzymes [4]): 26 | Ambit profiling: NDR1 (various enzymes [5]): 64 | Ambit profiling: GRK7 (various enzymes [6]): 9.7 | Ambit profiling: CSNK1G2 (various enzymes [7]): 83 | Ambit profiling: ERN1 (various enzymes [8]): 71 | Ambit profiling: RIOK3 (various enzymes [9]): 11 | Ambit profiling: CDK4 (various enzymes [10]): 88 | Ambit profiling: CDK4-cyclinD1 (various enzymes [10]): 76 | Ambit profiling: CDK4-cyclinD3 (various enzymes [10]): 81 | Ambit profiling: RAF1 (various enzymes [11]): 93 | Ambit profiling: FAK (various enzymes [12]): 5.3 | Ambit profiling: ZAK (various enzymes [13]): 58 | Ambit profiling: MARK3 (various enzymes [14]): 43 | Ambit profiling: YANK2 (various enzymes [15]): 45 | Ambit profiling: KIT (various enzymes [16]): 2.9 | Ambit profiling: KIT-autoinhibited (various enzymes [16]): 76 | Ambit profiling: MEK6 (various enzymes [17]): 45 | Ambit profiling: PRKD1 (various enzymes [18]): 33 | Ambit profiling: EGFR(L858R) (various enzymes [19]): 18 | Ambit profiling: VRK2 (various enzymes [20]): 20 | Ambit profiling: CTK (various enzymes [21]): 53 | Ambit profiling: MERTK (various enzymes [22]): 3.5 | Ambit profiling: PKNB(M. tuberculosis) (various enzymes [23]): 36 | Ambit profiling: DMPK (various enzymes [24]): 100 | Ambit profiling: MST2 (various enzymes [25]): 3.1 | Ambit profiling: PIK4CB (various enzymes [26]): 31 | Ambit profiling: DRAK2 (various enzymes [27]): 98 | Ambit profiling: RET(V804M) (various enzymes [28]): 6 | Ambit profiling: PCTK1 (various enzymes [29]): 66 | Ambit profiling: NEK5 (various enzymes [30]): 64 | Ambit profiling: ABL1(F317I)-nonphosphorylated (various enzymes [31]): 56 | Ambit profiling: ABL1(F317I)-phosphorylated (various enzymes [31]): 19 | Ambit profiling: TLK1 (various enzymes [32]): 58 | Ambit profiling: YES (various enzymes [33]): 21 | Ambit profiling: KIT(V559D, T670I) (various enzymes [34]): 10 | Ambit profiling: PCTK3 (various enzymes [35]): 69 | Ambit profiling: PIM2 (various enzymes [36]): 100 | Ambit profiling: TRKC (various enzymes [37]): 0 | Ambit profiling: EPHA6 (various enzymes [38]): 14 | Ambit profiling: EGFR(G719C) (various enzymes [39]): 51 | Ambit profiling: LIMK1 (various enzymes [40]): 91 | Ambit profiling: FLT3(K663Q) (various enzymes [41]): 0.9 | Ambit profiling: IKK-alpha (various enzymes [42]): 83 | Ambit profiling: RSK4(Kin.Dom.1-N-terminal) (various enzymes [43]): 2.3 | Ambit profiling: RSK4(Kin.Dom.2-C-terminal) (various enzymes [43]): 74
